From US10246456B2, “IRAK4 inhibiting agents” (BIOGEN MA INC., priority 2014, dated 2019)

target: IRAK4 (Homo sapiens (Human), UniProt Q9NWZ3); assay: IRAK-4 AlphaScreen biochemical kinase assay; settings: 1 nM IRAK4, 1 mM ATP, 3.5 h at RT
Outline: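 AlphaScreen read-out: streptavidin beads bind the biotinylated peptide and protein A beads bind the anti-phosphothreonine antibody, so energy transfer reports phosphorylation of the peptide. The kinase is human IRAK-4.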

IRAK4, sequence (Q9NWZ3 whole entry, species assumed): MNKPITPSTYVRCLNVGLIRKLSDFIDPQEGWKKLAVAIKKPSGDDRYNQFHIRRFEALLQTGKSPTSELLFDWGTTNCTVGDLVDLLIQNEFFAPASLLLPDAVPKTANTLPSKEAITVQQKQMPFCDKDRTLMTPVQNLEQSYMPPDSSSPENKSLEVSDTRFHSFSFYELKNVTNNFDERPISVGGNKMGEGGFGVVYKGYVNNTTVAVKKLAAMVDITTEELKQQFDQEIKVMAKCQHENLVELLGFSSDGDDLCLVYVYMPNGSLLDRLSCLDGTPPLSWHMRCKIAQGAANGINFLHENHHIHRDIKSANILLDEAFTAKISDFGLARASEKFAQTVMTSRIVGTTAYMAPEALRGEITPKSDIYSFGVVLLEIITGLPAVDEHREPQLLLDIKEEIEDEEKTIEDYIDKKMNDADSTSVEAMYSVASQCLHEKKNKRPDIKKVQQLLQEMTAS

| IC50 [nM] | Structure (SMILES) |
| --- | --- |
| < 100 | CC(N)c1cccc(-c2cc(F)c3cnc(-c4cccc(C(F)(F)F)n4)n3c2)n1 (stereo not drawn) [Example 317, 1-(6-(8-fluoro-3-(6-(trifluoromethyl)pyridin-2-yl)imidazo[1,5-a]pyridin-6-yl)pyridin-2-yl)ethanamine] |
| < 100 | CC[C@H](N)c1cccc(-c2ccc3cnn(-c4cccc(CO)n4)c3c2)n1 [Example 318, (S)-(6-(6-(6-(1-aminopropyl)pyridin-2-yl)-1H-indazol-1-yl)pyridin-2-yl)methanol] |
| < 100 | Cc1cccc(-n2ncc3c(-c4cc[nH]n4)cc(-c4cccc(C(C)N)n4)cc32)n1 (stereo not drawn) [Example 319, 1-(6-(1-(6-methylpyridin-2-yl)-4-(1H-pyrazol-3-yl)-1H-indazol-6-yl)pyridin-2-yl)ethanamine] |
| 100 to 1000 | Cc1cccc(-n2ncc3ccc(-c4csc(CO)n4)cc32)n1 [Example 320, (4-(1-(6-methylpyridin-2-yl)-1H-indazol-6-yl)thiazol-2-yl)methanol] |
| < 100 | CC(N)c1cccc(-c2cc(F)c3cnn(-c4cccc(CO)n4)c3c2)n1 (stereo not drawn) [Example 321, (6-(6-(6-(1-aminoethyl)pyridin-2-yl)-4-fluoro-1H-indazol-1-yl)pyridin-2-yl)methanol] |
| < 100 | CC[C@@H](N)c1cccc(-c2ccc3cnn(-c4cccc(CO)n4)c3c2)n1 [Example 322, (R)-(6-(6-(6-(1-aminopropyl)pyridin-2-yl)-1H-indazol-1-yl)pyridin-2-yl)methanol] |
| 100 to 1000 | Cc1cccc(-n2ncc3ccc(-c4cn(C)cn4)cc32)n1 [Example 323, 6-(1-methyl-1H-imidazol-4-yl)-1-(6-methylpyridin-2-yl)-1H-indazole] |
| 100 to 1000 | CCC[C@H](N)c1cccc(-c2cc(N3CCOCC3=O)c3cnn(-c4cccc(CO)n4)c3c2)n1 [Example 351, (S)-4-(6-(6-(1-aminobutyl)pyridin-2-yl)-1-(6-(hydroxymethyl)pyridin-2-yl)-1H-indazol-4-yl)morpholin-3-one] |
| < 100 | C[C@H](N)c1cccc(-c2cc(-n3cccn3)c3cnn(-c4cccc(CO)n4)c3c2)n1 [Example 352, (S)-(6-(6-(6-(1-aminoethyl)pyridin-2-yl)-4-(1H-pyrazol-1-yl)-1H-indazol-1-yl)pyridin-2-yl)methanol] |
| < 100 | Cc1ccn(-c2cc(-c3cccc([C@H](C)N)n3)cc3c2cnn3-c2cccc(CO)n2)n1 [Example 353, (S)-(6-(6-(6-(1-aminoethyl)pyridin-2-yl)-4-(3-methyl-1H-pyrazol-1-yl)-1H-indazol-1-yl)pyridin-2-yl)methanol] |
| < 100 | C[C@H](N)c1cccc(-c2cc(-c3csc(C(F)(F)F)n3)c3cnn(-c4cccc(CO)n4)c3c2)n1 [Example 382, (S)-(6-(6-(6-(1-aminoethyl)pyridin-2-yl)-4-(2-(trifluoromethyl)thiazol-4-yl)-1H-indazol-1-yl)pyridin-2-yl)methanol] |
| < 100 | C[C@H](N)c1cccc(-c2cc(-c3cc(C(F)(F)F)[nH]n3)c3cnn(-c4cccc(CO)n4)c3c2)n1 [Example 383, (S)-(6-(6-(6-(1-aminoethyl)pyridin-2-yl)-4-(5-(trifluoromethyl)-1H-pyrazol-3-yl)-1H-indazol-1-yl)pyridin-2-yl)methanol] |
| < 100 | CCC[C@H](N)c1cccc(-c2cc(-c3ncccn3)c3cnn(-c4cccc(CO)n4)c3c2)n1 [Example 384, (S)-(6-(6-(6-(1-aminobutyl)pyridin-2-yl)-4-(pyrimidin-2-yl)-1H-indazol-1-yl)pyridin-2-yl)methanol] |
| < 100 | C[C@H](N)c1cccc(-c2cc(-c3ncc(F)cn3)c3cnn(-c4cccc(CO)n4)c3c2)n1 [Example 385, (S)-(6-(6-(6-(1-aminoethyl)pyridin-2-yl)-4-(5-fluoropyrimidin-2-yl)-1H-indazol-1-yl)pyridin-2-yl)methanol] |
| < 100 | C[C@H](N)c1cccc(-c2cc(-c3ccn(C(F)F)n3)c3cnn(-c4cccc(CO)n4)c3c2)n1 [Example 386, (S)-(6-(6-(6-(1-aminoethyl)pyridin-2-yl)-4-(1-(difluoromethyl)-1H-pyrazol-3-yl)-1H-indazol-1-yl)pyridin-2-yl)methanol] |

More lines, now with the values behind:

| Structure (SMILES) | IC50 [nM] |
| --- | --- |
| CCc1cccc(-c2ncc3ccc(-c4cccc(C(C)N)n4)cn23)n1 (stereo not drawn) [Example 293, 1-(6-(3-(6-ethylpyridin-2-yl)imidazo[1,5-a]pyridin-6-yl)pyridin-2-yl)ethanamine] | < 100 |
| CCC(N)c1cccc(-c2ccc3cnn(-c4cccc(CO)n4)c3c2)n1 (stereo not drawn) [Example 294, (6-(6-(6-(1-aminopropyl)pyridin-2-yl)-1H-indazol-1-yl)pyridin-2-yl)methanol] | < 100 |
| Cc1cccc(-n2ncc3c(-c4ncc[nH]4)cc(-c4cccc(C(C)N)n4)cc32)n1 (stereo not drawn) [Example 295, 1-(6-(4-(1H-imidazol-2-yl)-1-(6-methylpyridin-2-yl)-1H-indazol-6-yl)pyridin-2-yl)ethanamine] | < 100 |
| Cc1ccnc(-n2ncc3ccc(-c4cccc(C(C)N)n4)cc32)n1 (stereo not drawn) [Example 296, 1-(6-(1-(4-methylpyrimidin-2-yl)-1H-indazol-6-yl)pyridin-2-yl)ethanamine] | 1000 to 10000 |
| CC(N)c1cccc(-c2ccc3cnn(-c4nccc(C(F)(F)F)n4)c3c2)n1 (stereo not drawn) [Example 297, 1-(6-(1-(4-(trifluoromethyl)pyrimidin-2-yl)-1H-indazol-6-yl)pyridin-2-yl)ethanamine] | < 100 |
| Cc1cccc(-n2ncc3ccc(-c4cccc(C(C)(C)N)n4)cc32)n1 [Example 298, 2-(6-(1-(6-methylpyridin-2-yl)-1H-indazol-6-yl)pyridin-2-yl)propan-2-amine] | 100 to 1000 |
| Cc1cccc(-n2ncc3ccc(-c4cn(C)c(C(C)O)n4)cc32)n1 (stereo not drawn) [Example 299, 1-(1-methyl-4-(1-(6-methylpyridin-2-yl)-1H-indazol-6-yl)-1H-imidazol-2-yl)ethanol] | 1000 to 10000 |
| Cc1cccc(-n2ncc3ccc(-c4cn(C)c(CN)n4)cc32)n1 [Example 300, (1-methyl-4-(1-(6-methylpyridin-2-yl)-1H-indazol-6-yl)-1H-imidazol-2-yl)methanamine] | 1000 to 10000 |
| CC(N)c1cccc(-c2ccc3cnn(-c4cccc(C(C)(C)C(N)=O)n4)c3c2)n1 (stereo not drawn) [Example 301, 2-(6-(6-(6-(1-aminoethyl)pyridin-2-yl)-1H-indazol-1-yl)pyridin-2-yl)-2-methylpropanamide] | 100 to 1000 |
| CC(N)c1cccc(-c2ccc3cnc(-c4cccc(CO)n4)n3c2)n1 (stereo not drawn) [Example 302, (6-(6-(6-(1-aminoethyl)pyridin-2-yl)imidazo[1,5-a]pyridin-3-yl)pyridin-2-yl)methanol] | < 100 |
| Cc1cccc(-n2ncc3c(-c4nccs4)cc(-c4cccc(C(C)N)n4)cc32)n1 (stereo not drawn) [Example 303, 1-(6-(1-(6-methylpyridin-2-yl)-4-(thiazol-2-yl)-1H-indazol-6-yl)pyridin-2-yl)ethanamine] | < 100 |
| Cc1cccc(-n2ncc3ccc(-c4cccc(C5(C#N)CCC5)n4)cc32)n1 [Example 304, 1-(6-(1-(6-methylpyridin-2-yl)-1H-indazol-6-yl)pyridin-2-yl)cyclobutanecarbonitrile] | < 100 |
| Cc1cccc(-n2ncc3ccc(-c4cn(C)c(C(C)N)n4)cc32)n1 (stereo not drawn) [Example 305, 1-(1-methyl-4-(1-(6-methylpyridin-2-yl)-1H-indazol-6-yl)-1H-imidazol-2-yl)ethanamine] | 100 to 1000 |
| Cc1cccc(-n2ncc3ccc(-c4ccccn4)cc32)n1 [Example 306, 1-(6-methylpyridin-2-yl)-6-(pyridin-2-yl)-1H-indazole] | 100 to 1000 |
| COc1cc(-c2cccc(C(C)N)n2)cc2c1cnn2-c1cccc(CO)n1 (stereo not drawn) [Example 307, (6-(6-(6-(1-aminoethyl)pyridin-2-yl)-4-methoxy-1H-indazol-1-yl)pyridin-2-yl)methanol] | < 100 |
| Cc1cccc(-n2ncc3ccc(-c4ccc5c(n4)C(N)CCCC5)cc32)n1 (stereo not drawn) [Example 308, 2-(1-(6-methylpyridin-2-yl)-1H-indazol-6-yl)-6,7,8,9-tetrahydro-5H-cyclohepta[b]pyridin-9-amine] | 100 to 1000 |
| CC(N)c1cccc(-c2cc(CO)c3cnn(-c4cccc(CO)n4)c3c2)n1 (stereo not drawn) [Example 309, (6-(6-(1-aminoethyl)pyridin-2-yl)-1-(6-(hydroxymethyl)pyridin-2-yl)-1H-indazol-4-yl)methanol] | < 100 |
| Cc1cccc(-n2ncc3ccc(-c4csc(C(C)N)n4)cc32)n1 (stereo not drawn) [Example 310, 1-(4-(1-(6-methylpyridin-2-yl)-1H-indazol-6-yl)thiazol-2-yl)ethanamine] | < 100 |
| CC(N)c1cccc(-c2cc(Cl)c3cnc(-c4cccc(C(F)(F)F)n4)n3c2)n1 (stereo not drawn) [Example 311, 1-(6-(8-chloro-3-(6-(trifluoromethyl)pyridin-2-yl)imidazo[1,5-a]pyridin-6-yl)pyridin-2-yl)ethanamine] | < 100 |
| Cc1cccc(-n2ncc3ccc(-c4cccc(C5(C(N)=O)CCC5)n4)cc32)n1 [Example 312, 1-(6-(1-(6-methylpyridin-2-yl)-1H-indazol-6-yl)pyridin-2-yl)cyclobutanecarboxamide] | < 100 |
| Cc1cccc(-n2ncc3ccc(-c4cccc(CCC(F)(F)F)n4)cc32)n1 [Example 313, 1-(6-methylpyridin-2-yl)-6-(6-(3,3,3-trifluoropropyl)pyridin-2-yl)-1H-indazole] | 1000 to 10000 |
| CC(N)c1cccc(-c2ccc3cnn(-c4cccc(CCO)n4)c3c2)n1 (stereo not drawn) [Example 314, 2-(6-(6-(6-(1-aminoethyl)pyridin-2-yl)-1H-indazol-1-yl)pyridin-2-yl)ethanol] | < 100 |
| Cc1cc(C)nc(-n2ncc3ccc(-c4cccc(C(C)N)n4)cc32)c1 (stereo not drawn) [Example 315, 1-(6-(1-(4,6-dimethylpyridin-2-yl)-1H-indazol-6-yl)pyridin-2-yl)ethanamine] | 1000 to 10000 |
| CNC(=O)c1cc(-c2cccc(C(C)N)n2)cc2c1cnn2-c1cccc(CO)n1 (stereo not drawn) [Example 316, 6-(6-(1-aminoethyl)pyridin-2-yl)-1-(6-(hydroxymethyl)pyridin-2-yl)-N-methyl-1H-indazole-4-carboxamide] | < 100 |
